From patent US20240150365A1 (Hotspot Therapeutics, Inc., priority 2022, published 2024) come the findings set out here.

pIC50: −log10 of the molar value. Like-named read-outs stand apart in the source and are kept apart here.

For one test, the target named is T1, MALT1 (Homo sapiens, UniProt Q9UDY8).
T1 construct: Avi-tagged FL MALT-1 (Pharmaron, stored at −70° C.); Avi tag
T1 sequence (Q9UDY8 1-824): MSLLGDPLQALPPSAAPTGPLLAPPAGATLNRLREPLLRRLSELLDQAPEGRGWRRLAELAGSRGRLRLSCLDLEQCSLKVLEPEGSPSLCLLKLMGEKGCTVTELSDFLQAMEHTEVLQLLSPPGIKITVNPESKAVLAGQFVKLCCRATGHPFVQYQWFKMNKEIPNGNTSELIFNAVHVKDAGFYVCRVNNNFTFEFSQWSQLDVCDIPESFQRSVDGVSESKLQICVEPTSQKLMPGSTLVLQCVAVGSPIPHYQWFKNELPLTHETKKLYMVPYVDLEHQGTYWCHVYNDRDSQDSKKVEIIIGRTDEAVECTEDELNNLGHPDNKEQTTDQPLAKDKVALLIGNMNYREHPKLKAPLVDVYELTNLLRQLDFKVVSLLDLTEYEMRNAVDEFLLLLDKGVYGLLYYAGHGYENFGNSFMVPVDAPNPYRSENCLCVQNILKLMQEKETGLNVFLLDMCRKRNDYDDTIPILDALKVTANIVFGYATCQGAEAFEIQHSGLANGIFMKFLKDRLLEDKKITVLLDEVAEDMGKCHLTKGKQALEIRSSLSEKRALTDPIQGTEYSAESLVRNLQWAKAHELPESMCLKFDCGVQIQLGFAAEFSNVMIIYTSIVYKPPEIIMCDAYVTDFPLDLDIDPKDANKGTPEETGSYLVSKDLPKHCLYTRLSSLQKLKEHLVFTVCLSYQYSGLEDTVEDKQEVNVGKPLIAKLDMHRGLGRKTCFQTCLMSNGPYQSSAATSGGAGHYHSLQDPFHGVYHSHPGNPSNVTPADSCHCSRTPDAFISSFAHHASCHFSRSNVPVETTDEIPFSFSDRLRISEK
Nature of the test: MALT-1 Fluorogenic Peptide Cleavage Assay (MALT1 inhibition assay). Particulars: Avi-tagged FL MALT-1, Ac-LRSR-AMC peptide substrate, 30 min pre-incubation, 90 min reaction. In kind it is biochemical. In outline: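 IC50 from sigmoidal fits of % inhibition, with fluorescence (ex 342, em 441 nm) from AMC released from the quenched LRSR peptide after 90 min at room temperature. Full-length Avi-tagged MALT1 saw compound for 30 min first; final DMSO 2%.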

In the next test the test system is NF-kB. The test can be described thus: NF-kB reporter assay in Jurkat cells stimulated with aCD3/aCD28/PMA. In kind it is cell-based. Particulars: Homo sapiens, Jurkat, read-out: NF-kB Reporter Assay IC50. In short, it runs like this: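 Stimulation used final aCD3 5 μg/mL, aCD28 5 μg/mL and PMA 0.03 μg/mL for 4 hr at 37° C, after 1 hr compound pretreatment of 25,000 serum-starved Jurkat cells per well. One-Glo luminescence gave IC50 values.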
In general terms: Reporter assays use an easily measured gene product as a stand-in for the process of interest.

[1] abbreviates: Jurkat cells, 1 hr compound incubation, aCD3/aCD28/PMA stimulation 4 hr, One-Glo readout.

As a reminder, the pIC50 is the negative decadic logarithm of the IC50, by convention in mol/L. With `Cc1cc(NS(=O)(=O)c2ccc(-n3cc(C(F)(F)F)cn3)nc2)c2c(cnn2C)c1` [Example I-71, N-(1,5-Dimethyl-1H-Indazol-7-yl)-6-(4-(Trifluoromethyl)-1H-Pyrazol-1-yl) Pyridine-3-Sulfonamide], the figures for the pIC50 against MALT1 and with NF-kB (setting [1]) were 5.60 to 6.00 and above 6.40, respectively.

With `COc1cc(NS(=O)(=O)c2ccc(-n3cc(C(F)(F)F)cn3)nc2)c2c(cnn2C)c1` [Example I-72, N-(5-Methoxy-1-Methylindazol-7-yl)-6-[4-(Trifluoromethyl)Pyrazol-1-Yl]Pyridine-3-Sulfonamide], the negative logarithm of the IC50 (pIC50) against MALT1 was 5.60 to 6.00; in the test on NF-kB (setting [1]), above 6.40.

Regarding `Cn1ncc2cc(F)cc(NS(=O)(=O)c3ccc(-n4cc(C(F)(F)F)cn4)nc3)c21` [Example I-73, N-(5-Fluoro-1-Methylindazol-7-yl)-6-[4-(Trifluoromethyl)Pyrazol-1-Yl]Pyridine-3-Sulfonamide], the pIC50 at MALT1 and in the test with NF-kB (setting [1]) was 6.00 to 6.40 throughout.

As for `COc1ncc2cnn(C)c2c1NS(=O)(=O)c1ccc(-n2cc(C(F)(F)F)cn2)nc1` [Example I-74, N-(6-methoxy-1-methyl-1H-pyrazolo[4,3-c]pyridin-7-yl)-6-(4-(trifluoromethyl)-1H-pyrazol-1-yl)pyridine-3-sulfonamide], the pIC50 at MALT1 and in the test with NF-kB was above 6.40 in each case.

For the compound `[2H]C([2H])([2H])n1ncc2ccc(OC)c(NS(=O)(=O)c3ccc(-n4cc(C(F)(F)F)cn4)nc3)c21` [Example I-75, N-(6-Methoxy-1-(Methyl-D3)-1H-Indazol-7-yl)-6-(4-(Trifluoromethyl)-1H-Pyrazol-1-yl)Pyridine-3-Sulfonamide], the pIC50 against MALT1 and in the test with NF-kB (setting [1]) was above 6.40 throughout.

On to `Cn1ncc2cccc(NS(=O)(=O)c3ccc(-c4cc5ccccc5[nH]4)nc3)c21` [Example I-76, 6-(1H-Indol-2-yl)-N-(1-Methyl-1H-Indazol-7-yl)Pyridine-3-Sulfonamide], for which the pIC50 against MALT1 was below 5.60; in the test on NF-kB (setting [1]) it was above 6.40.

Turning to `Cn1ncc2cccc(NS(=O)(=O)c3ccc(-c4cc5cnccc5[nH]4)nc3)c21` [Example I-77, N-(1-Methyl-1H-Indazol-7-yl)-6-(1H-Pyrrolo[3,2-C]Pyridin-2-yl)Pyridine-3-Sulfonamide], the negative-log IC50 (pIC50) against MALT1 and with NF-kB (setting [1]) was below 5.60 throughout.

Turning to `Cn1ncc2cccc(NS(=O)(=O)c3ccc(-c4cc[nH]c4)nc3)c21` [Example I-79, N-(1-Methyl-1H-Indazol-7-yl)-6-(1H-Pyrrol-3-yl)Pyridine-3-Sulfonamide], the pIC50 was below 5.60 against MALT1 and 5.60 to 6.00 in the test on NF-kB (setting [1]).

For the compound `Cn1ncc2cccc(NS(=O)(=O)c3ccc(-c4ccc[nH]4)nc3)c21` [Example I-80, N-(1-Methyl-1H-Indazol-7-yl)-6-(1H-Pyrrol-2-yl)Pyridine-3-Sulfonamide], the negative-log IC50 (pIC50) is below 5.60 against MALT1 and 5.60 to 6.00 in the test on NF-kB (setting [1]).

As to `Cn1ncc2cccc(NS(=O)(=O)c3ccc(-c4ccn[nH]4)nc3)c21` [Example I-81, N-(1-Methyl-1H-Indazol-7-yl)-6-(1H-Pyrazol-5-yl)Pyridine-3-Sulfonamide], the negative logarithm of the IC50 (pIC50) against MALT1 was below 5.60; in the test on NF-kB (setting [1]) it was 6.00 to 6.40.

On to `Cn1nccc1-c1ccc(S(=O)(=O)Nc2cccc3cnn(C)c23)cn1` [Example I-82, N-(1-Methyl-1H-Indazol-7-yl)-6-(1-Methyl-1H-Pyrazol-5-yl)Pyridine-3-Sulfonamide], for which the pIC50 was below 5.60 at MALT1 and 6.00 to 6.40 with NF-kB (setting [1]).

Consider `Cc1cc(-c2ccc(S(=O)(=O)Nc3cccc4cnn(C)c34)cn2)[nH]n1` [Example I-83, N-(1-Methyl-1H-Indazol-7-yl)-6-(3-Methyl-1H-Pyrazol-5-yl)Pyridine-3-Sulfonamide], for which the pIC50 at MALT1 was below 5.60; in the test with NF-kB (setting [1]), above 6.40.

Consider `Cn1ncc2cccc(NS(=O)(=O)c3ccc(-c4cc(C(F)(F)F)n[nH]4)nc3)c21` [Example I-84, N-(1-Methyl-1H-Indazol-7-yl)-6-(3-(Trifluoromethyl)-1H-Pyrazol-5-yl)Pyridine-3-Sulfonamide], for which the results for the pIC50 against MALT1 and in the test with NF-kB (setting [1]) were 6.00 to 6.40 and above 6.40, respectively.
